Measured values as given in paper PMC10892419, “UHPLC-MS/MS Assay for Quantification of Legubicin, a Novel Doxorubicin-Based Legumain-Activated Prodrug, and Its Application to Pharmacokinetic and Tissue Distribution Studies” (Molecules, 2024).

Columns and labels:
[1] = in vivo; cited from earlier work
[2] = Storage stability of analytes in mouse liver homogenate (method validation); details: for Freeze and thaw stability at -80 °C/ room temperature, Measured concentration / Short term stability at room temperature (6 h), Measured concentration / Auto-sampler stability at 2-8 °C, Measured concentration: low QC (nominal Leu-DOX 27, DOX 10 pmol/mL), n = 6, mean ± SD
Description: Tumor-bearing mouse tumor/individual tissue samples were homogenized by adding PBS at a ratio of 1:5 (e.g., 1 g of tumor sample to 5 mL of PBS) to make a tumor/tissue homogenate. A quantity of 60 µL of homogenate was taken as a tumor/tissue sample and processed in the same manner as the mouse plasma sample, with the exception of 240 µL of IS working solution used for protein precipitation.
By investigating low- and high-concentration stability QCs in six replicates at different storage conditions, autosampler, short-term (bench-top), freeze and thaw, and long-term stability evaluations were conducted.

legumain = molecular target: T1, legumain (Homo sapiens, UniProt Q99538); assay: Stability of Leu-DOX in the legumain enzymatic system; format: in vitro ADME; details: plasma samples spiked with Leu-DOX, enzymatic digestion procedure (24 h, 37 °C), n = 3
T1 sequence (Q99538 18-433): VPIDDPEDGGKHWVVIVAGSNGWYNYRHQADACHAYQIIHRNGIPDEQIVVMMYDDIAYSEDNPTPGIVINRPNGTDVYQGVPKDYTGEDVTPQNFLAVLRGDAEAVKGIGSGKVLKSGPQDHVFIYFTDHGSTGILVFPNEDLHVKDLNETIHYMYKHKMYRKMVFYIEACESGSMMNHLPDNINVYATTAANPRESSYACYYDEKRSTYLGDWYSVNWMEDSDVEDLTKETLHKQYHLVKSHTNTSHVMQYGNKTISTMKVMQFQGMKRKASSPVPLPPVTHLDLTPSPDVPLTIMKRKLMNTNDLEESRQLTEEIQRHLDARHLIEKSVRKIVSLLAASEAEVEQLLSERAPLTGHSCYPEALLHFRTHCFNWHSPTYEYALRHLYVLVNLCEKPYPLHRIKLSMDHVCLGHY
Description: The specific liquid-phase conditions are shown as follows. Column: Agilent Eclipse Plus 4.6 × 250 mm, 5 µm; mobile phase A: 0.1% trifluoroacetic acid in water; mobile phase B: acetonitrile. Flow rate: 1.0 mL/min; HPLC: Waters 2695; detector: Waters 2475 detector (ex470/em600); column temperature: 30 °C; injection volume: 10 µL; run time: 30 min; needle wash solvent: 50% acetonitrile in water; gradient elution: starting 20% B, increasing from 20% to 45% B in 15 min, increasing from 45% to 80% B in 15 to 20 min, maintained for 5 min, then decreasing to 20% B in 0.1 min, and continuing until the end of 30 min. (b) Kinetics of Leu-Dox release from legubicin (black) and legubicin–albumin conjugate (blue) in the presence of legumain (n = 4). (c) Stability of Leu-Dox in this enzymatic system (n = 3).
The assessment of Leu-DOX stability in the aforementioned enzymatic systems warrants careful consideration. Consequently, plasma samples containing Leu-DOX were intentionally supplemented to assess the potential impacts of these methods on the precise determination of the enzymatic digestion of the legubicin plasma protein complex, which is utilized for determining the total Leu-DOX post-digestion. […]

[3] = mouse liver homogenate, 3 cycles
[4] = mouse liver homogenate, low QC (Leu-DOX 27, DOX 10 pmol/mL), n = 6
[5] = processed mouse liver homogenate, 48h

SMILES | Vz [1] [L/kg] | clearance (CL) [1] | Freeze and thaw stability at -80 °C/ room temperature, Measured concentration [2, 3] [pmol/mL] | Short term stability at room temperature (6 h), Bias [2, 4] [%] | Short term stability at room temperature (6 h), Measured concentration ([2]; mouse liver homogenate) [pmol/mL] | Auto-sampler stability at 2-8 °C, Measured concentration [2, 5] [pmol/mL] | stability in the legumain enzymatic digestion system (legumain) | Freeze and thaw stability at -80 °C/ room temperature, Bias ([2]; mouse liver homogenate, 3 cycles, low QC (Leu-DOX 27, DOX 10 pmol/mL), n = 6) [%] | Auto-sampler stability at 2-8 °C, Bias ([2]; processed mouse liver homogenate, 48h, low QC (Leu-DOX 27, DOX 10 pmol/mL), n = 6) [%]
COc1cccc2c1C(=O)c1c(O)c3c(c(O)c1C2=O)C[C@@](O)(C(=O)CO)C[C@@H]3O[C@H]1C[C@H](N)[C@H](O)[C@H](C)O1 [DOX, Doxorubicin] | 72 | approximately 2553 mL/h/kg | 11.04 ± 0.68 | 0.8 | 10.08 ± 0.52 | 11.06 ± 0.81 |  |  | 
COc1cccc2c1C(=O)c1c(O)c3c(c(O)c1C2=O)C[C@@](O)(C(=O)CO)C[C@@H]3O[C@H]1C[C@H](NC(=O)[C@@H](N)CC(C)C)[C@H](O)[C@H](C)O1 [Leu-DOX, N-L-leucyl-doxorubicin] |  |  | 27.23 ± 1.55 | -4.8 | 25.72 ± 1.45 | 27.97 ± 3.06 | remained unaltered throughout the enzymatic digestion procedure | 0.9 | 3.6
